Assay results: US20230104487A1, “11-(4-CHLOROPHENYL)-4-(2,3-DIHYDRO-1H-INDOLE-1-CARBONYL)-3,11-DIMETHYL-5,10,DIOXATRICYCLO[7.4.0.0,2,6,]TRIDECA-1,3,6,8-TETRAEN-13-ONE AND DERIVATIVES AS DESTABILIZER OF CRY1 FOR THE TREATMENT OF CIRCADIAN RHYTHM ASSOCIATED DISEASES AND DISORDERS” (KOC UNIVERSITESI, priority 2019, published 2023)
“Also recorded” adds a separate entry of the source.

Key:
U2-OS Bmal1-dLuc cells = assay: Real-time monitoring of circadian rhythm, U2-OS Bmal1-dLuc; format: cell-based, human
Experimental: This assay was performed with two different equipment: Synergy H1 (BioTek) with 96-well plate and LumiCycle luminometer (Actimetrics) with 35 mm plates. Initial screening of molecules to determine their effect on the circadian period was performed in 96-well plate via Synergy H1. Clear 35-mm plates are used in LumiCycle luminometer which provides high resolution data describing the circadian oscillation. For 96-plate tests, 50000 U2-OS Bmal1-dLuc cells were seeded on an opaque 96-well plate and cultured overnight. Next day cells were reset by adding dexamethasone (DXM) ([…] final) for 2 h. Then medium is changed to bioluminescence recording media which contains the following in 1 L: DMEM powder (sigma D-2902, 10×1 L), 0.35 gr sodium bi-carbonate (tissue culture grade, sigma S5761), 3.5 gr D (+) glucose powder (tissue culture grade, sigma G7021), 10 mL 1M HEPES buffer (Gibco 15140-122), 2.5 mL Pen/Strep (100 ug/ml), 50 mL 5% FBS and up to 1 L sterile milliQ water. Luciferin is added freshly with 0.1 mM final concentration. Molecules were added to the bioluminescence recording media at desired concentration (0.5% final DMSO concentration). Plates were sealed with optically clear film to prevent evaporation and gas exchange thereby to maintain homeostasis of the cells.
Luminescence values were recorded at 32° C. for each 30 minutes with 15 seconds integration time via Synergy H1 luminometer for a week. For LumiCycle, 400×10^3 U2-OS Bmal1-dLuc or NIH3T3 mPer2-dLuc cells were seeded to 35 mm plates and then procedure given above was followed with a change in the last step. Plates were sealed with vacuum grease and placed to LumiCycle. Each plate was recorded continuously every 10 minutes for 70 seconds at 37° C. via photomultiplier tubes. Period and amplitude data were obtained from LumiCycle Analysis software. To detect the effect of FORMULA I in the absence of CRYs, Cry1^−/−/Cry2^−/− mouse embryonic fibroblasts (CRYDKO MEFs) transiently transfected with pGL3-Per2-Luc (luciferase reporter) were used. 3×10^5 CRYDKO cells were seeded in 35 mm clear plates. Next day, cells were transfected with 4000 ng pGL3-Per2-Luc via Fugene6 transfection reagent according to the manufacturer's instruction. In short, 3:1 ratio of Fugene6 in μl against transfected DNA amount in μg was kept in transfections. 72 h after transfection cells were synchronized with DXM for two hours. Then, medium was changed with lumicycle medium having DMSO or molecule, sealed with vacuum grease, and placed to LumiCycle.

[1] = test system: Dbp, Cry1, Cry2, Per2 mRNA; assay: RT-qPCR of clock genes, synchronized U2-OS cells; format: cell-based, human; settings: 10 μM, 72-92 h
Experimental: FIGS. 3A-3G are an illustration of FORMULA I decreased CRY1 level in synchronized U2-OS cells. Confluent U2-OS cells were synchronized by 2 h treatment with dexamethasone ([…]) and medium replaced with fresh medium containing FORMULA I or solvent (DMSO final 0.5%). Cells were harvested at indicated time points. FIGS. 3A-3B show lysed cells were analyzed via protein immunoblot technique. […] CRY levels in DMSO control divided by that of in FORMULA I treated samples were reported (mean±SEM, n=4). FIGS. 3C-3G show cells were subjected to reverse-transcription-quantitative polymerase chain reaction (RT-qPCR). […] Expression level of genes was normalized according to the expression level of that gene at 72ndh. (Data represent the mean±SEM, n=3 with duplicates ***: p<0.001 **: p<0.005, *: p<0.05 versus DMSO control by two-way ANOVA).
QIAGEN RNeasy Mini Kit was used to isolate the mRNA. Protocol provided by the manufacturer was followed. […] Quantity of RNA was determined by Nanodrop 2000 (Thermo Scientific). […] For quantitative real time PCR (qRT-PCR) analysis cDNAs were further diluted 5-fold (1:5). mRNA expression levels were calculated by qRT-PCR with the SYBR Green. […] 10 seconds denaturation, 57 to 62° C. for 20 seconds annealing (the degree is determined by primer type) and 72° C. for 30 seconds of elongation, 35 cycles. […]

Cc1c(C(=O)N2CCc3ccccc32)oc2ccc3c(c12)C(=O)CC(C)(c1ccc(Cl)cc1)O3 (stereo not drawn) [FORMULA I, 11-(4-chlorophenyl)-4-(2,3-dihydro-1H-indole-1-carbonyl)-3,11-dimethyl-5,10,dioxatricyclo[7.4.0.0,2,6,]trideca-1,3,6,8-tetraen-13-one]
EC50 (U2-OS Bmal1-dLuc cells; Homo sapiens, U2OS, U2-OS Bmal1-dLuc, read-out: EC50 of period lengthening and rhythm dampening): ~6.5 µM
activity / dose responsive effect on circadian rhythm (U2-OS Bmal1-dLuc cells; U2-OS Bmal1-dLuc): showed the best dose responsive effect
effect on amplitude of the rhythm (U2-OS Bmal1-dLuc cells; dose-dependent): dampened the rhythm
effect on period of circadian rhythm (U2-OS Bmal1-dLuc cells; dose-dependent): significantly lengthened the period; also recorded: lengthened the circadian rhythm dose dependently
Dbp and Per2 mRNA levels [1]: Increase in clock output genes of the Dbp and Per2 mRNA levels; also recorded: increased the level of Dbp and Per2
peak time and abundance of Cry1, Cry2 (and Dbp) mRNA [1]: changed the peak time without significantly changing their overall abundance; also recorded: changed the peak time of Dbp, Cry1 and Cry2
